Data on 11 compounds can be found in paper PMC8151276, “An Integrated Approach toward NanoBRET Tracers for Analysis of GPCR Ligand Engagement” (Molecules, 2021).

Assay [1] concerns the target T1, HTR2C (Homo sapiens, UniProt P28335).
T1 construct: purchased Promega (in-house HiBiT-GPCR construct library, NanoBRET)
T1 sequence (P28335 33-458): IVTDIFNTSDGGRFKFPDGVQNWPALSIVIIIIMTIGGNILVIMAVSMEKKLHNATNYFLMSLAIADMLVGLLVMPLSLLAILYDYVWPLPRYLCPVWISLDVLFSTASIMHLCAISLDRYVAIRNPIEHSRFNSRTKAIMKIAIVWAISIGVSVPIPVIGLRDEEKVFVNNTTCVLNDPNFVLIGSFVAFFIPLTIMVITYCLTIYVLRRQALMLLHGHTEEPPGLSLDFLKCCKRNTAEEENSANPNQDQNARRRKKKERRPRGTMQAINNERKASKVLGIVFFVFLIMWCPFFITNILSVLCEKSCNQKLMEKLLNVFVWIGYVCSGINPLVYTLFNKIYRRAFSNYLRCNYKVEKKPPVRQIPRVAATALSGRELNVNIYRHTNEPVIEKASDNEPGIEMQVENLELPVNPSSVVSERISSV
Description: NanoBRET screen HiBiT-HTR2C in HEK293. In kind it is binding. The method, then: (§1) Each tracer candidate was screened across the entire library of HiBiT-GPCR constructs using NanoBRET as the detection modality. As depicted in Figure 4A, the specificity of interactions was evaluated through decrease in BRET due to competitive displacement of a bound tracer by excess parental compound. Each tracer was analyzed for binding to each HiBiT-GPCR fusion in the absence and in the presence of competing parental compound. Briefly, HEK293 cells were transfected with HiBiT-GPCR constructs diluted into promoterless DNA to reduce expression and maximize translocation to the cell surface. Each tracer candidate was then screened at concentrations of 1 μM and 0.1 μM across cells expressing these fusions. Cells were treated for 1.5 h with tracer either alone or in the presence of 20 μM competing parental compound (i.e., control). BRET was measured upon addition of purified LgBiT and subsequent complementation with HiBiT genetically fused to a GPCR. The specificity of interactions was assessed through a decrease in BRET signal due to competitive displacement of the bound tracer. To further gauge the robustness of these interactions, the fold response over the control (i.e., BRETtracer/BRETcontrol) was calculated. We chose a 1.5-fold response, which translates to ≥7-fold signal over noise as the minimal threshold required to score an interaction as positive.
(§2) HiBiT-GPCR DNA constructs were diluted in 10 mM Tris pH 8 to a final concentration of 0.01 μg/μL, arrayed in 96-well plates and stored at −20 °C. For transfection, HEK293 cells were suspended in Opti-MEM (without phenol red) supplemented with 2% fetal bovine serum (Seradigm) and 100 units/mL penicillin–streptomycin (Gibco) at a final concentration of 220,000 cells/mL and dispensed into white 96-well plates at 90 μL/well. Subsequent transfections and screens were carried using an Agilent Bravo Automated Liquid Handling Platform. First, the 96-well HiBiT DNA arrays were diluted 25-fold in Opti-MEM (without serum or phenol red) to a final concentration of 0.0004 μg/μL and 20 μL of the diluted DNAs were transferred into new 96-well plates. Next, promoterless carrier DNA (1 μg/μL) was diluted 25-fold (0.04 μg/μL) and then dispensed into the diluted arrays at 20 μL/well. Following brief mixing, Viafect transfection reagent (Promega) diluted 16-fold into Opti-MEM was dispensed into the plates at 40 μL/well. After mixing by pipetting, plates were incubated for 10 min on the pipetting station deck. The DNA-transfection reagent complexes were then added to plates containing cells. To facilitate the screen, 10 μL of DNA-transfection reagent complexes were added in duplicates to the top 4 and bottom 4 rows, resulting in two identical 48-well arrays per plate. Plates with transfected cells were incubated for 18–20 h at 37 °C/5% CO2. A screen of each tracer across the entire library using two different concentrations requires duplicate plates of transfected cells. Depending on the number of tracers being screened, transfections can be scaled up using the same ratios. The next day, for each tracer, four 20× screening solutions in tracer dilution buffer (Promega) were prepared: two duplicates at final concentration of 20 μM and two duplicates at a final concentration of 2 μM. […] The four resulting solutions were diluted 4-fold in Opti-MEM without serum or phenol red to generate 5× solutions (5 µM and 0.5 µM tracer +/− 100 μM competing compound). To screen the library, a BioTek MultiFlo FX liquid dispenser was used to dispense 22.5 µL of tracer solution to the top 4 rows and 22.5 µL tracer + competing compound solution to the 4 bottom rows. Plates were briefly mixed on an orbital shaker and incubated for 1.5 h at room temperature. […] Plates were briefly mixed on an orbital shaker and incubated for 15 min to allow complementation.

Assay [2] addresses T2, OPRM1 (Homo sapiens, UniProt P35372).
T2 construct: purchased Promega (in-house HiBiT-GPCR construct library, NanoBRET)
Description: NanoBRET screen HiBiT-OPRM1 in HEK293. In kind it is binding. The method, then:
as §1, §2

Each structure is given as a SMILES string.

T2 sequence (P35372 whole entry): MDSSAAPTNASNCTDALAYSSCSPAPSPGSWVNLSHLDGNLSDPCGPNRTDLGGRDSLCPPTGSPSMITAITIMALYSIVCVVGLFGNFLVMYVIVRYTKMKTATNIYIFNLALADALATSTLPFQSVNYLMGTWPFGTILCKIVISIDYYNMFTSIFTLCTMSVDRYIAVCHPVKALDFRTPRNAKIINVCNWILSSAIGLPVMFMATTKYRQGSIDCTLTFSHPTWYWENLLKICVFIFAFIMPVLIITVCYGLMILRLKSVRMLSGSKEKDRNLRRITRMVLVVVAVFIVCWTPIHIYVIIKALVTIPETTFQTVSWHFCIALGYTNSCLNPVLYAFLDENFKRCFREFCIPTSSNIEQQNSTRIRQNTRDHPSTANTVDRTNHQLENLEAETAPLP

In the case of `COc1ccc2c(n1)c(CCNC(C)=O)cn2CCNC(=O)CCc1ccc2n1[B-](F)(F)[N+]1=C(c3ccc[nH]3)C=CC1=C2` [Azamelatonin-1-NB590], the “NanoBRET Fold Response” value was found to be 0.91 in assay [1] (0.1μM tracer), 0.91 in assay [1] (1μM tracer), 1.22 in assay [2] (0.1μM tracer) and 1.22 in assay [2] (1μM tracer).

Take `CC(C)N(CC[C@H](c1ccccc1)c1cc(CCNC(=O)c2ccc(CNC(=O)CCc3ccc4n3[B-](F)(F)[N+]3=C(c5ccc[nH]5)C=CC3=C4)cc2)ccc1O)C(C)C` [Tolterodine-BZ-NB590]: the “NanoBRET Fold Response” value is on record as 0.86 in assay [1] (HTR2C, tracer 0.1μM); 1.55 in assay [1] (HTR2C, tracer 1μM); 0.95 in assay [2] (OPRM1, tracer 0.1μM); 0.93 in assay [2] (OPRM1, tracer 1μM).

As for `O=C(CCc1ccc2n1[B-](F)(F)[N+]1=C(c3ccc[nH]3)C=CC1=C2)NCCOCCOCCNC(=O)OCCOCCN1CCN(C2=Nc3ccccc3Sc3ccccc32)CC1` [Quetiapine-a-2-NB590], the “NanoBRET Fold Response” value in assay [1] (HTR2C, tracer 0.1μM) is given as 0.99; in assay [1] (HTR2C, tracer 1μM) it was 1.17; in assay [2] (OPRM1, tracer 0.1μM) it was 0.84; in assay [2] (OPRM1, tracer 1μM) it was 0.89.

For the compound `Cc1cc2c(s1)Nc1ccccc1N=C2N1CCN(CCCNC(=O)CCOCCOCCOCCOCCNC(=O)CCc2ccc3n2[B-](F)(F)[N+]2=C(c4ccc[nH]4)C=CC2=C3)CC1` [Olanzapine-a-2-NB590], the “NanoBRET Fold Response” value is 1.54 in assay [1] (HTR2C, tracer 0.1μM); 1.22 in assay [1] (HTR2C, tracer 1μM); 0.96 in assay [2] (OPRM1, tracer 0.1μM); 1.08 in assay [2] (OPRM1, tracer 1μM).

With `O=C(CCc1ccc2n1[B-](F)(F)[N+]1=C(c3ccc[nH]3)C=CC1=C2)NCc1ccc(C(=O)NCCOCCOCCNCC(O)COc2cccc3ccccc23)cc1` (stereo not shown) [Propranolol-3-NB590], the “NanoBRET Fold Response” value in assay [1] (HTR2C, 0.1μM) was found to be 1.22; in assay [1] (HTR2C, 1μM) it was 1.21; in assay [2] (OPRM1, 0.1μM), 1.02; in assay [2] (OPRM1, 1μM), 1.21.

In the case of `N#CN/C(=N\CCNC(=O)c1ccc(N)cc1)NCCCOc1cccc(CN2CCCCC2)c1` [Aminopotentidine (unmodified)], the “NanoBRET Fold Response” value turned out to be 1.48 in assay [1] (HTR2C, other tracers/Aminopotentidine (unmodified), 0.1μM); 1.66 in assay [1] (HTR2C, other tracers/Aminopotentidine (unmodified), 1μM); 1.22 in assay [2] (OPRM1, other tracers/Aminopotentidine (unmodified), 0.1μM); 0.99 in assay [2] (OPRM1, other tracers/Aminopotentidine (unmodified), 1μM).

As to `CN1CCN(C2=Nc3cc(Cl)ccc3N(CC(=O)NCCOCCOCCOCCOCCNC(=O)CCc3ccc4n3[B-](F)(F)[N+]3=C(c5ccc[nH]5)C=CC3=C4)c3ccccc32)CC1` [Clozapine-c-2-NB590], the “NanoBRET Fold Response” value in assay [2] (OPRM1, 0.1μM tracer) was determined as 0.98; in assay [2] (OPRM1, 1μM tracer) it was 0.94.

For the compound `O=C(CCc1ccc2n1[B-](F)(F)[N+]1=C(c3ccc[nH]3)C=CC1=C2)NCc1ccc(C(=O)NCCOCCC(=O)N[C@@H]2CC[C@@]3(O)[C@H]4Cc5ccc(O)c6c5[C@@]3(CCN4CC3CC3)[C@H]2O6)cc1` [Naltrexone-3-NB590], the “NanoBRET Fold Response” value in assay [1] (HTR2C, tracer 0.1μM) is reported as 0.79; in assay [1] (HTR2C, tracer 1μM), 1.03; in assay [2] (OPRM1, tracer 0.1μM), 1.59; in assay [2] (OPRM1, tracer 1μM), 1.31.

Turning to `CC(C)N(CC[C@H](c1ccccc1)c1cc(CCNC(=O)CCOCCOCCOCCOCCNC(=O)CCc2ccc3n2[B-](F)(F)[N+]2=C(c4ccc[nH]4)C=CC2=C3)ccc1O)C(C)C` [Tolterodine-2-NB590], the “NanoBRET Fold Response” value worked out at 1.09 in assay [1] (HTR2C, tracer 0.1μM); 1.01 in assay [1] (HTR2C, tracer 1μM); 1.23 in assay [2] (OPRM1, tracer 0.1μM); 1.10 in assay [2] (OPRM1, tracer 1μM).

For the compound `Cc1nc2n(c(=O)c1CCN1CCC(c3noc4cc(F)ccc34)CC1)CCCC2OC(=O)NCCOCCOCCOCCOCCNC(=O)CCc1ccc2n1[B-](F)(F)[N+]1=C(c3ccc[nH]3)C=CC1=C2` (stereo not shown) [Risperidone-2-NB590], the “NanoBRET Fold Response” value worked out at 1.26 in assay [1] (HTR2C, tracer 0.1μM); 2.15 in assay [1] (HTR2C, tracer 1μM); 0.92 in assay [2] (OPRM1, tracer 0.1μM); 0.96 in assay [2] (OPRM1, tracer 1μM).

With `CN1CCN(C2=Nc3cc(Cl)ccc3Nc3ccc(CNC(=O)CCOCCOCCOCCOCCNC(=O)CCc4ccc5n4[B-](F)(F)[N+]4=C(c6ccc[nH]6)C=CC4=C5)cc32)CC1` [Clozapine-b-2-NB590], the “NanoBRET Fold Response” value in assay [2] (OPRM1, 0.1μM tracer) was 0.96; in assay [2] (OPRM1, 1μM tracer) it was 0.86.
